Laboratory results taken from ChEMBL document CHEMBL3102739, “Synthesis and antiproliferative activity of conformationally restricted 1,2,3-triazole analogues of combretastatins in the sea urchin embryo model and against human cancer cell lines” (Bioorg Med Chem, 2014).

How the values were obtained:
Type in all cases: functional
[1] = system: M14; experiment: Growth inhibition of human M14 cells after 48 hrs by SRB assay; details: M14, 48 h
[2] = system: NCI-H322M; experiment: Growth inhibition of human NCI-H322M cells after 48 hrs by SRB assay
[3] = system: NCI-H522; experiment: Growth inhibition of human NCI-H522 cells after 48 hrs by SRB assay; details: NCI-H522, 48 h
[4] = system: KM12; experiment: Growth inhibition of human KM12 cells after 48 hrs by SRB assay; details: KM12, 48 h
[5] = Growth inhibition of human OVCAR5 cells after 48 hrs by SRB assay; details: OVCAR-5, 48 h
[6] = Growth inhibition of human RXF393 cells after 48 hrs by SRB assay; details: RXF 393, 48 h
[7] = system: MCF7; experiment: Growth inhibition of human MCF7 cells after 48 hrs by SRB assay; details: MCF7, 48 h
[8] = system: DU-145; experiment: Growth inhibition of human DU145 cells after 48 hrs by SRB assay; details: DU-145, 48 h
[9] = system: 786-0; experiment: Growth inhibition of human 786-0 cells after 48 hrs by SRB assay; details: 786-0, 48 h
[10] = system: K562; experiment: Growth inhibition of human K562 cells after 48 hrs by SRB assay; details: K562, 48 h
[11] = Growth inhibition of human UO31 cells after 48 hrs by SRB assay; details: UO-31, 48 h
[12] = system: CCRF-CEM; experiment: Growth inhibition of human CCRF-CEM cells after 48 hrs by SRB assay
[13] = system: HOP-62; experiment: Growth inhibition of human HOP62 cells after 48 hrs by SRB assay; details: HOP-62, 48 h
[14] = system: HL-60(TB); experiment: Growth inhibition of human HL-60(TB) cells after 48 hrs by SRB assay; details: HL-60, 48 h
[15] = system: Malme-3M; experiment: Growth inhibition of human MALME-3M cells after 48 hrs by SRB assay
[16] = system: SK-MEL-28; experiment: Growth inhibition of human SK-MEL-28 cells after 48 hrs by SRB assay; details: SK-MEL-28, 48 h

SMILES	GI50 [1] [nM]	GI50 [2] [nM]	GI50 [3] [nM]	GI50 [4] [nM]	GI50 [5] [nM]	GI50 [6] [nM]	GI50 [7] [nM]	GI50 [8] [nM]	GI50 [9] [nM]	GI50 [10] [nM]	GI50 [11] [nM]	GI50 [12] [nM]	GI50 [13] [nM]	GI50 [14] [nM]	GI50 [15] [nM]	GI50 [16] [nM]
COc1ccc(-c2nn[nH]c2-c2cc(OC)c(OC)c(OC)c2)cc1	< 10	< 10	< 10	< 10	< 10	< 10	< 10	< 10	< 10	< 10	1210	< 10	< 10	< 10	–	–
COc1ccc(-c2nn[nH]c2-c2cc(OC)c3c(c2OC)OCO3)cc1	341	2890	301	412	3630	657	352	1420	1400	493	2960	684	899	307	766	1780
